Test results published in paper doi:10.1101/2022.07.05.498881v1 (biorxiv, 2022).
Where two headings read alike, the source gives them in different places.

Molecular target: T1, SARS-CoV-2 MPro (main protease, 3CL protease, Nsp5) (Severe acute respiratory syndrome coronavirus 2, UniProt P0DTD1)
T1 construct: gene rep
Assay: fluorogenic NSP7 peptide cleavage, […] h preincubation, […] °C
Format: biochemical

With `O=Cc1cncc(C(=O)N2CCCC2c2cccc3ccccc23)c1` (centres unmarked) ['0292] as the molecule, how does the IC50 read?
Its IC50 is 100 µM.

Which IC50 does the source give for `N#CC(C(=O)c1cccnc1)c1cc(F)cc(F)c1` (centres unmarked) ['0431] here?
The IC50 was 50 µM.

How did the IC50 turn out when `CC1(Cc2ccc(F)cc2)CCCN1c1ncc(C=O)cn1` (centres unmarked) ['0892] was run?
The IC50 was 140 µM.

With `Cc1noc(CCCOc2c(C)cc(Br)cc2C=O)n1` ['2961] as the molecule, how does the IC50 read?
The IC50 was 100 µM.

Which IC50 does the source give for `O=Cc1ncc(Br)cc1OCc1ccc2c(c1)COC2` ['3620] here?
Its IC50 is 55 µM.

`O=Cc1ccc(Br)cc1OCc1ccc(Cl)c([N+](=O)[O-])c1` ['4218] was tested. Which IC50 did it give?
Its IC50 is over 200 µM.

How did the IC50 turn out when `N#CC(C(=O)c1ccc([N+](=O)[O-])o1)c1cccnc1` (centres unmarked) ['5103] was run?
Its IC50 is 20 µM.

How did the IC50 turn out when `O=Cc1cnc(N2CC(c3nc4ccccc4[nH]3)C2)nc1` ['5156] was run?
The IC50 was 80 µM.

For `O=C1CN(Cc2ccc(F)cc2)C(=O)N1c1cncc2ccccc12` ['5548], which IC50 is on record?
Its IC50 is 30 µM.

`O=C1N[C@@]2(CCc3ccccc32)C(=O)N1c1cncc2ccccc12` ['6111] was tested. Which IC50 did it give?
Its IC50 is 25 µM.

For `O=Cc1ncc(Br)cc1OCc1cc(Cl)cc(Br)c1` ['6117], which IC50 is on record?
The IC50 was 7 µM.

Which IC50 does the source give for `N#Cc1ccc(Br)c(COc2cc(Br)cnc2C=O)c1` ['6690] here?
The IC50 was 2 µM.

With `Cc1c(C(=O)C(C#N)C(=O)Nc2ccccc2)nnn1-c1ccccc1` (centres unmarked) ['6792] as the molecule, how does the IC50 read?
The IC50 was 100 µM.

`O=Cc1ncc(Br)cc1OCc1ccc(Cl)c([N+](=O)[O-])c1` ['7021] was tested. Which IC50 did it give?
The IC50 was 1 µM.

How did the IC50 turn out when `O=Cc1ncc(Br)cc1OCc1ccc2ccccc2c1` ['7356] was run?
The IC50 was 26 µM.

`O=Cc1ncc(Br)cc1OCc1cc(Br)ccc1Cl` ['8252] was tested. Which IC50 did it give?
Its IC50 is 6 µM.

For `O=Cc1ncc(Br)cc1OCc1cccc([N+](=O)[O-])c1` ['9112], which IC50 is on record?
The IC50 was 35 µM.

How did the IC50 turn out when `O=Cc1ncc(Br)cc1OCc1ccc(Cl)c(Br)c1` ['9121] was run?
Its IC50 is 6 µM.

How did the IC50 turn out when `Cc1ccc(COc2cc(Br)cnc2C=O)cc1[N+](=O)[O-]` ['9218] was run?
The IC50 was 12 µM.

How did the IC50 turn out when `O=Cc1ncc(Br)cc1OCc1cccc([N+](=O)[O-])c1Cl` ['9220] was run?
Its IC50 is 33 µM.

Which IC50 does the source give for `O=Cc1ncc(Br)cc1OCc1ccc(Cl)cc1` ['9313] here?
Its IC50 is 22 µM.

Which IC50 does the source give for `C[C@H]1CN(C(=O)Nc2cncc3ccccc23)Cc2ccccc2O1` [SG-0001] here?
Its IC50 is 55 µM.

For `COc1ccc(Br)cc1C(=O)C(=O)Nc1cncc(C)c1` [Z1355254448], which IC50 is on record?
Its IC50 is 110 µM.

Which IC50 does the source give for `CSc1ccncc1NC(=O)C(=O)c1ccc(F)cc1` [Z1669286714] here?
The IC50 was 110 µM.

`Cn1cccc1C(=O)C(=O)Nc1cnccc1Oc1ccccc1` [Z2195811405] was tested. Which IC50 did it give?
The IC50 was about 200 µM.

`O=C1CCN(Cc2cccs2)C(=O)N1Cc1ccc[nH]c1=O` [Z3535317212] was tested. Which IC50 did it give?
The IC50 was 29 µM.

`CC1(C)CN(C(=O)Nc2cncc3ccccc23)Cc2cc(Br)ccc2O1` [Z4924562413] was tested. Which IC50 did it give?
The IC50 was 13 µM.

With `O=C1NC(c2cccc3ccccc23)C(=O)N1c1cncc2ccccc12` (centres unmarked) [Z4929615577] as the molecule, how does the IC50 read?
Its IC50 is 10 µM.

For `CC1CCC2(NC(=O)N(c3cncc4ccccc34)C2=O)c2ccccc21` (centres unmarked) [Z4929616137], which IC50 is on record?
The IC50 was 8 µM.

Which IC50 does the source give for `O=C(Cc1cncc2ccccc12)N1CCOc2ccc(Cl)cc2C1` [Z4946671001] here?
Its IC50 is 5 µM.

`Cc1ccc(F)cc1C(=O)C(=O)Nc1cncc(Br)c1C` [Z5420225795] was tested. Which IC50 did it give?
Its IC50 is 40 µM.

With `COc1cc(C=O)c(OS(=O)(=O)CC2CCCCC2)cc1OC` [ZINC271072260] as the molecule, how does the IC50 read?
Its IC50 is 143 µM.

For `Cc1noc(C)c1CCCNc1nc(-c2ccncc2)nc2ccccc12` [ZINC301553312], which IC50 is on record?
The IC50 was 63 µM.

With `COC(=O)c1cc(C#N)c(=O)n(Cc2cccc(F)c2Cl)c1` [ZINC338540162] as the molecule, how does the IC50 read?
The IC50 was 30 µM.

`O=C(Cc1cccnc1)N(Cc1ccccn1)c1ccc(Cl)cc1` [ZINC346371112] was tested. Which IC50 did it give?
The IC50 was 98 µM.

Which IC50 does the source give for `CC1CN(C(=O)CCn2cc(Br)ccc2=O)Cc2ccccc2O1` (centres unmarked) [ZINC553840273] here?
Its IC50 is 88 µM.

How did the IC50 turn out when `Cc1cc(C(=O)C(=O)Nc2cnccc2F)ccc1F` [ZINC5420738300] was run?
Its IC50 is 160 µM.

How did the IC50 (pH 7.4, 0.05% Tween-20, 1 mM DTT, substrate 12.7 μM (Km), DMSO stock, possibly covalent warhead, read-out: IC50[DMSO]) turn out when ZINC795258204 was run?
The IC50 was 177 µM.
